Columns and labels:
Format in all cases: cell-based
Conditions in all cases: compounds at 50 nM and 500 nM
IKZF1 = biological target: T1, IKZF1 (Homo sapiens, UniProt Q13422+Q96SW2); assay: Western blot degradation of IKZF1 in hPBMCs (24 h)
T1 construct: The supernatant was aspirated as the extracted total cell protein; endogenous in cells; host or cells: human peripheral blood mononuclear cells (hPBMCs)
Method in brief: (§1)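 Thawed human PBMCs, 1×10^6 cells/mL; cpd 50 nM or 500 nM, 24 h; RIPA lysis, BCA, SDS-PAGE, NC transfer, immunoblot. Readout: grayscale/internal control → % remaining; degradation = 1 − remaining.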

CK1α = biological target: T2, CK1α (Homo sapiens, UniProt P48729+Q96SW2); assay: Western blot degradation of CK1α in hPBMCs (24 h)
T2 construct: The supernatant was aspirated as the extracted total cell protein; endogenous in cells; host or cells: human peripheral blood mononuclear cells (hPBMCs)
Method in brief: as §1

IKZF3 = biological target: T3, IKZF3 (Homo sapiens, UniProt Q96SW2+Q9UKT9); assay: Western blot degradation of IKZF3 in hPBMCs (24 h)
T3 construct: The supernatant was aspirated as the extracted total cell protein; endogenous in cells; host or cells: human peripheral blood mononuclear cells (hPBMCs)
Method in brief: as §1

IKZF2 = biological target: T4, IKZF2 (Homo sapiens, UniProt Q96SW2+Q9UKS7); assay: Western blot degradation of IKZF2 in hPBMCs (24 h)
T4 construct: The supernatant was aspirated as the extracted total cell protein; endogenous in cells; host or cells: human peripheral blood mononuclear cells (hPBMCs)
Method in brief: as §1

WEE1 = biological target: T5, WEE1 (Homo sapiens, UniProt P30291+Q96SW2); assay: Western blot degradation of WEE1 in hPBMCs (24 h)
T5 construct: The supernatant was aspirated as the extracted total cell protein; endogenous in cells; host or cells: human peripheral blood mononuclear cells (hPBMCs)
Method in brief: as §1

GSPT1 = biological target: T6, GSPT1 (Homo sapiens, UniProt P15170+Q96SW2); assay: Western blot degradation of GSPT1 in hPBMCs (24 h)
T6 construct: The supernatant was aspirated as the extracted total cell protein; endogenous in cells; host or cells: human peripheral blood mononuclear cells (hPBMCs)
Method in brief: as §1

T1 sequence (Q13422 whole entry): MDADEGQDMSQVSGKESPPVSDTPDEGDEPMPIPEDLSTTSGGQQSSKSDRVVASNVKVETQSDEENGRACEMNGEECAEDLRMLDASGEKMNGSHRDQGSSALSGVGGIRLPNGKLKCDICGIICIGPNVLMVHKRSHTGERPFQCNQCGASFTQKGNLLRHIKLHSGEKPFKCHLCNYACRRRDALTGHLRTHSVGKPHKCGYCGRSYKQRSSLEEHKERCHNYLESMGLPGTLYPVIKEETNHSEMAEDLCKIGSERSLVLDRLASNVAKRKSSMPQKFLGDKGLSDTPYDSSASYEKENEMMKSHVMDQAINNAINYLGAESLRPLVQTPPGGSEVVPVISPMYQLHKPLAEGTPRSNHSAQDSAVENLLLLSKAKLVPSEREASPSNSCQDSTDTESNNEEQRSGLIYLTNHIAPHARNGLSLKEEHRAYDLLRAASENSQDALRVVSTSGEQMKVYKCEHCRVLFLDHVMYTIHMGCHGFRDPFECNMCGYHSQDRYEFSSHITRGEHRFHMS
T1 sequence (Q96SW2 whole entry): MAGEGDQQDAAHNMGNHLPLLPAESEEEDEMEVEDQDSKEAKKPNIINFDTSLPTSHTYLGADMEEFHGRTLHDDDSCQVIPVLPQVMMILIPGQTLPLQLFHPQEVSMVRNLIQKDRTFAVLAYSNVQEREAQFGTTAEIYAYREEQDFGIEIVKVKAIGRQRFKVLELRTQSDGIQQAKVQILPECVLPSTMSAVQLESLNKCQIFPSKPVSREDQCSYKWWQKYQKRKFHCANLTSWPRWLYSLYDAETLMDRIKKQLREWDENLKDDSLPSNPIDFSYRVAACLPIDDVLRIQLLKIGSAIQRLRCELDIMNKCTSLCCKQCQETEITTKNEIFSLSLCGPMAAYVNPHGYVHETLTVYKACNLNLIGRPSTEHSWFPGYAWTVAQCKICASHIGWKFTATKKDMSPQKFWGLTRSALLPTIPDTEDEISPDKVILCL
T1 sequence (Q16531 whole entry partner): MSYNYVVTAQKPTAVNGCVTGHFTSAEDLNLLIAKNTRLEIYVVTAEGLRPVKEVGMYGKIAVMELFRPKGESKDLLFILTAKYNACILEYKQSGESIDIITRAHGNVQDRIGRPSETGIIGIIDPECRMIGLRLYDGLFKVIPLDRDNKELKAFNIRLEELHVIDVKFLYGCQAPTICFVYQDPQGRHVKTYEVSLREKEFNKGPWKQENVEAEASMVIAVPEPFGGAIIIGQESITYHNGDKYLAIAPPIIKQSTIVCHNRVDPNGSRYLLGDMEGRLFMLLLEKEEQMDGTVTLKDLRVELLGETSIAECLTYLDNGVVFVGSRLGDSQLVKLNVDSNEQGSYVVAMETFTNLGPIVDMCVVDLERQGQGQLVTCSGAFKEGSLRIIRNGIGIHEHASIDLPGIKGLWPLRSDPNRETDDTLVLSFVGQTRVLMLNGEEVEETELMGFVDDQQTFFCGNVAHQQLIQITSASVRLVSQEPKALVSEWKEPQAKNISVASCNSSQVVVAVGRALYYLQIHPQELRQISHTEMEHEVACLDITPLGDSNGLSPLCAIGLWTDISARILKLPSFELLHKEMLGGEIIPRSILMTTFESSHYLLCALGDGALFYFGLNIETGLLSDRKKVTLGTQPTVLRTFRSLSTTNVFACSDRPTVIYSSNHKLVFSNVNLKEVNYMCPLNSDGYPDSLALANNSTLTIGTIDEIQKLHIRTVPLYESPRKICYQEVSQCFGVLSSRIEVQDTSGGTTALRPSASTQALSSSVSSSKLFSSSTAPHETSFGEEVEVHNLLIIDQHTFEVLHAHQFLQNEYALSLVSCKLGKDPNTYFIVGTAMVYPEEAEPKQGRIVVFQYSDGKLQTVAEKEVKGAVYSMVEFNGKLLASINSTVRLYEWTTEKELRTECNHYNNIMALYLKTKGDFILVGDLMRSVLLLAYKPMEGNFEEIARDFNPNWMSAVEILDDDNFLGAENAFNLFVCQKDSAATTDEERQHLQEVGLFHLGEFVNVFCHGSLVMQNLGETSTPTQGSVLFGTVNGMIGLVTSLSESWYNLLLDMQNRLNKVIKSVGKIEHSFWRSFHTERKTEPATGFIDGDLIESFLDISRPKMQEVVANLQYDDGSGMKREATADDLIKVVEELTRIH
T6 sequence (P15170 whole entry): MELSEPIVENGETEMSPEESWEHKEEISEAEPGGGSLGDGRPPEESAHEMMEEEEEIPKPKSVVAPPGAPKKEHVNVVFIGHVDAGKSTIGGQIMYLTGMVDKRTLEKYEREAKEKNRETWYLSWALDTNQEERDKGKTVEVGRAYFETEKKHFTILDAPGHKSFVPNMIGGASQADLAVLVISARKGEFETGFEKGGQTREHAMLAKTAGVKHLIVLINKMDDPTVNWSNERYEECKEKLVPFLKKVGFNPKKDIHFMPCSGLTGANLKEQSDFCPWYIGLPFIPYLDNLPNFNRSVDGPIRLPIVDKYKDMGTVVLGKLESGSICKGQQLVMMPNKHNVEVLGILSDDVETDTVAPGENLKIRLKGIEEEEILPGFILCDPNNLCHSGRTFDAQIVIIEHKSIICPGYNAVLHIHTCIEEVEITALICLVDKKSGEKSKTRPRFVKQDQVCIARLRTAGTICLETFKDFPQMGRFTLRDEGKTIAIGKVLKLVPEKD
T6 sequence (Q96SW2 whole entry): as the sequence (Q96SW2 whole entry) above
T6 sequence (Q16531 whole entry partner): as the sequence (Q16531 whole entry partner) above
T5 sequence (P30291 whole entry): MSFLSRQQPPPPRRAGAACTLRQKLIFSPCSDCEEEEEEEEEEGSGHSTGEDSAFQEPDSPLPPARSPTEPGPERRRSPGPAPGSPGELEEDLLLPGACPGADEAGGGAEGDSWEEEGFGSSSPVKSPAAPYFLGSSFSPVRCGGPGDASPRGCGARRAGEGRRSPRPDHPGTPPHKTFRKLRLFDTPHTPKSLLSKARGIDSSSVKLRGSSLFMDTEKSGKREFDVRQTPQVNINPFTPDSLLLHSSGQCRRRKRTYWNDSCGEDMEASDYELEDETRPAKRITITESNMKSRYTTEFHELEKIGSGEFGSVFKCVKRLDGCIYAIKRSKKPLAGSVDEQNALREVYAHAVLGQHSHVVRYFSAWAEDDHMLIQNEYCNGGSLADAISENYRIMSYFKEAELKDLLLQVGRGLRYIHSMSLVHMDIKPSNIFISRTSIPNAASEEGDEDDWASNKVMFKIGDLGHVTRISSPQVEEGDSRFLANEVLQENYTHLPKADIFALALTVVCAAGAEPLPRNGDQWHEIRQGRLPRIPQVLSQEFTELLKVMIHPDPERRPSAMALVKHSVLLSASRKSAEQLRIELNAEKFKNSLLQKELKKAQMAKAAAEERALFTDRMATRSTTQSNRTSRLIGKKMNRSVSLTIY
T5 sequence (Q96SW2 whole entry): as the sequence (Q96SW2 whole entry) above
T5 sequence (Q16531 whole entry partner): as the sequence (Q16531 whole entry partner) above
T2 sequence (P48729 whole entry): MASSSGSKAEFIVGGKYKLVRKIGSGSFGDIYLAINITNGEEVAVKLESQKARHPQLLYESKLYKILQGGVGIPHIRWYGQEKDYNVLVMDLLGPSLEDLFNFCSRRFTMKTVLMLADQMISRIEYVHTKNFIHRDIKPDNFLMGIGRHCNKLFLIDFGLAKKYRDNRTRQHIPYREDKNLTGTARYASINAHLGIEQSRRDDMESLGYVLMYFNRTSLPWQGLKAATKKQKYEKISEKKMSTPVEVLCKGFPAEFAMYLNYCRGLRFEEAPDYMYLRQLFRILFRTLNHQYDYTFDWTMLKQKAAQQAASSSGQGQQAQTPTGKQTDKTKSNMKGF
T2 sequence (Q96SW2 whole entry): as the sequence (Q96SW2 whole entry) above
T2 sequence (Q16531 whole entry partner): as the sequence (Q16531 whole entry partner) above
T3 sequence (Q9UKT9 whole entry): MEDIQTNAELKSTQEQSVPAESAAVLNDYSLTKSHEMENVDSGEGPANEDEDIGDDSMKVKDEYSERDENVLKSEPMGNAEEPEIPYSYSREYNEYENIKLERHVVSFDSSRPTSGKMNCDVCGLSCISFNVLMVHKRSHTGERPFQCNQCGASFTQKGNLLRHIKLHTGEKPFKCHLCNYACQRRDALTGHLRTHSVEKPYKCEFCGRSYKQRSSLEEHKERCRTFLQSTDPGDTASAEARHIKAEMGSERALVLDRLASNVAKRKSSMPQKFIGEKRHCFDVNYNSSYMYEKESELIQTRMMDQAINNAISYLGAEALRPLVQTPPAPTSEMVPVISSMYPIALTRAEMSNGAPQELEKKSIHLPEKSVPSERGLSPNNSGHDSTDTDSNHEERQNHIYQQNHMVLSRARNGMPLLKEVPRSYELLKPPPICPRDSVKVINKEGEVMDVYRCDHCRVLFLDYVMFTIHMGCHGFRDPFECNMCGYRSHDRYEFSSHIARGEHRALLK
T3 sequence (Q96SW2 whole entry): as the sequence (Q96SW2 whole entry) above
T3 sequence (Q16531 whole entry partner): as the sequence (Q16531 whole entry partner) above

SMILES	IKZF1 substrate protein remaining % (IKZF1)	CK1α substrate protein remaining % (CK1α)	IKZF3 substrate protein remaining % (IKZF3)	IKZF2 substrate protein remaining % (IKZF2)	WEE1 substrate protein remaining % (WEE1)	GSPT1 substrate protein remaining % (GSPT1)
O=C1CCN(N2Cc3cc(CN4CCC(c5ccccc5Cl)CC4)ccc3C2=O)C(=O)N1 [GT-06887, 1-(5-((4-(2-chlorophenyl)piperidin-1-yl)methyl)-1-oxoisoindolin-2-yl)dihydropyrimidine-2,4(1H,3H)-dione]	B (80%< substrate protein remaining % ≤100%)	B (80%< substrate protein remaining % ≤100%)	B (80%< substrate protein remaining % ≤100%)	A (0% ≤ substrate protein remaining % ≤80%)	A (0% ≤ substrate protein remaining % ≤80%)	A (0% ≤ substrate protein remaining % ≤80%)
O=C1CCN(N2Cc3cc(CN4CCC(c5ccc(Cl)cc5)CC4)ccc3C2=O)C(=O)N1 [GT-06888, 1-(5-((4-(4-chlorophenyl)piperidin-1-yl)methyl)-1-oxoisoindolin-2-yl)dihydropyrimidine-2,4(1H,3H)-dione]	B (80%< substrate protein remaining % ≤100%)	B (80%< substrate protein remaining % ≤100%)	B (80%< substrate protein remaining % ≤100%)	A (0% ≤ substrate protein remaining % ≤80%)	A (0% ≤ substrate protein remaining % ≤80%)	A (0% ≤ substrate protein remaining % ≤80%)
O=C1CCN(N2Cc3cc(CN4CCC(c5ccccc5F)CC4)ccc3C2=O)C(=O)N1 [GT-06889, 1-(5-((4-(2-fluorophenyl)piperidin-1-yl)methyl)-1-oxoisoindolin-2-yl)dihydropyrimidine-2,4(1H,3H)-dione]	B (80%< substrate protein remaining % ≤100%)	B (80%< substrate protein remaining % ≤100%)	B (80%< substrate protein remaining % ≤100%)	A (0% ≤ substrate protein remaining % ≤80%)	A (0% ≤ substrate protein remaining % ≤80%)	A (0% ≤ substrate protein remaining % ≤80%)
O=C1CCN(N2Cc3cc(CN4CCC(c5ccc(F)cc5)CC4)ccc3C2=O)C(=O)N1 [GT-06890, 1-(5-((4-(4-fluorophenyl)piperidin-1-yl)methyl)-1-oxoisoindolin-2-yl)dihydropyrimidine-2,4(1H,3H)-dione]	B (80%< substrate protein remaining % ≤100%)	B (80%< substrate protein remaining % ≤100%)	B (80%< substrate protein remaining % ≤100%)	B (80%< substrate protein remaining % ≤100%)	A (0% ≤ substrate protein remaining % ≤80%)	A (0% ≤ substrate protein remaining % ≤80%)
O=C1CCN(N2Cc3cc(CN4CCC(c5ccccc5C(F)(F)F)CC4)ccc3C2=O)C(=O)N1 [GT-06891, 1-(1-oxo-5-((4-(2-(trifluoromethyl)phenyl)piperidin-1-yl)methyl)isoindolin-2-yl)dihydropyrimidine-2,4(1H,3H)-dione]	B (80%< substrate protein remaining % ≤100%)	B (80%< substrate protein remaining % ≤100%)	B (80%< substrate protein remaining % ≤100%)	A (0% ≤ substrate protein remaining % ≤80%)	A (0% ≤ substrate protein remaining % ≤80%)	A (0% ≤ substrate protein remaining % ≤80%)
O=C1CCN(N2C(=O)c3ccc(CN4CCC(c5cccc(F)c5Cl)CC4)cc3C2=O)C(=O)N1 [GT-06895, 5-((4-(2-chloro-3-fluorophenyl)piperidin-1-yl)methyl)-2-(2,4-dioxotetrahydropyrimidin-1(2H)-yl)isoindoline-1,3-dione]	A (0% ≤ substrate protein remaining % ≤80%)	B (80%< substrate protein remaining % ≤100%)	B (80%< substrate protein remaining % ≤100%)	B (80%< substrate protein remaining % ≤100%)	B (80%< substrate protein remaining % ≤100%)	B (80%< substrate protein remaining % ≤100%)
O=C1CCN(N2C(=O)c3ccc(CN4CC=C(c5cccc(F)c5Cl)CC4)cc3C2=O)C(=O)N1 [GT-06896, 5-((4-(2-chloro-3-fluorophenyl)-3,6-dihydropyridin-1(2H)-yl)methyl)-2-(2,4-dioxotetrahydropyrimidin-1(2H)-yl)isoindoline-1,3-dione]	A (0% ≤ substrate protein remaining % ≤80%)	B (80%< substrate protein remaining % ≤100%)	B (80%< substrate protein remaining % ≤100%)	B (80%< substrate protein remaining % ≤100%)	B (80%< substrate protein remaining % ≤100%)	B (80%< substrate protein remaining % ≤100%)
O=C1CCN(N2C(=O)c3ccc(CN4CCN(c5ccc(F)cn5)CC4)cc3C2=O)C(=O)N1 [GT-06965, 2-(2,4-dioxotetrahydropyrimidin-1(2H)-yl)-5-((4-(5-fluoropyridin-2-yl)piperazin-1-yl)methyl)isoindoline-1,3-dione]	B (80%< substrate protein remaining % ≤100%)	B (80%< substrate protein remaining % ≤100%)	B (80%< substrate protein remaining % ≤100%)	A (0% ≤ substrate protein remaining % ≤80%)	B (80%< substrate protein remaining % ≤100%)	B (80%< substrate protein remaining % ≤100%)
O=C1CCN(N2C(=O)c3ccc(CN4CCN(c5ccc(C(F)(F)F)cn5)CC4)cc3C2=O)C(=O)N1 [GT-06968, 2-(2,4-dioxotetrahydropyrimidin-1(2H)-yl)-5-((4-(5-(trifluoromethyl)pyridin-2-yl)piperazin-1-yl)methyl)isoindoline-1,3-dione]	B (80%< substrate protein remaining % ≤100%)	B (80%< substrate protein remaining % ≤100%)	B (80%< substrate protein remaining % ≤100%)	A (0% ≤ substrate protein remaining % ≤80%)	A (0% ≤ substrate protein remaining % ≤80%)	B (80%< substrate protein remaining % ≤100%)
O=C1CCN(N2C(=O)c3ccc(CN4CCN(c5ncc(Cl)cc5Cl)CC4)cc3C2=O)C(=O)N1 [GT-06969, 5-((4-(3,5-dichloropyridin-2-yl)piperazin-1-yl)methyl)-2-(2,4-dioxotetrahydropyrimidin-1(2H)-yl)isoindoline-1,3-dione]	B (80%< substrate protein remaining % ≤100%)	B (80%< substrate protein remaining % ≤100%)	B (80%< substrate protein remaining % ≤100%)	A (0% ≤ substrate protein remaining % ≤80%)	A (0% ≤ substrate protein remaining % ≤80%)	B (80%< substrate protein remaining % ≤100%)

Source: patent publication US20260356819A1, “OXOISOINDOLINYL-SUBSTITUTED […] DERIVATIVE AND USE THEREOF” (GLUETACS THERAPEUTICS (SHANGHAI) CO., LTD., priority 2023, published 2026)
